Data published in patent US8685949B2, “Use of 25-hydroxy vitamin D3 to improve vitality of animals” (DSM IP Assets B.V., priority 2005, dated 2014).

What was measured:
[1] = tested on: replacement gilts (Landrace×Large White) / parity-one sows; test: Reproductive performance of parity-one sows fed 25-hydroxy-vitamin D3 (Experiment 1); format: in vivo, pig
Text: In a commercial pig farm a total of 27 six-month-old replacement gilts (Landrace×Large White) were selected. There were two dietary treatments in different stages of the reproductive cycle (replacement gilt development, gestation, lactation). The control diet was the standard farm diet without the supplementation of 25-hydroxy-vitamin D3. The experimental diet was the standard farm diet supplemented with 25-hydroxy-vitamin D3 at 50 mcg per kg diet.
Fourteen (14) gilts were randomly selected and assigned to the control group and the other 13 gilts to the ROVIMIX® Hy•D® 1.25% group. Breeding started when the gilts were 7 months old. They were placed in the gestating stalls after breeding and remained there until 14 days before the expected date of farrowing. They were then weighed and moved to the farrowing stalls. Piglets were weaned at 28 days of age.
(§1) The following data were collected in the farrowing stalls in Experiments 1 and 2: • 1. Litter size at birth • a. Total pigs born • b. Pigs born alive • c. Stillborn pigs • d. Mummified fetuses • 2. Pig weight at birth • 3. Litter size at weaning • 4. Mortality • 5. Pig weight at weaning

[2] = tested on: replacement gilts (Landrace×Large White) / parity-one sows; test: Reproductive performance of parity-one sows fed 25-hydroxy-vitamin D3 (Experiment 2); format: in vivo, pig
Text: In another commercial pig farm a total of 43 six-month-old replacement gilts (Landrace×Large White) were selected. There were two dietary treatments in different stages of the reproductive cycle (replacement gilt development, gestation, lactation). The control diet was the standard farm diet without the supplementation of 25-hydroxy-vitamin D3. The experimental diet was the standard farm diet supplemented with 25-hydroxy-vitamin D3 at 50 mcg per kg diet.
Twenty-two (22) gilts were randomly selected and assigned to the control group and the other 21 gilts to the ROVIMIX® Hy•D® 1.25% group. Breeding started when the gilts were 7 months old. They were placed in the gestating stalls after breeding and remained there until 14 days before the expected date of farrowing. They were then weighed and moved to the farrowing stalls. Piglets were weaned at 28 days of age.
as §1

[3] = 50 mcg per kg diet, 28-day weaning

C=C1CC[C@H](O)C/C1=C/C=C1\CCC[C@]2(C)[C@@H]([C@H](C)CCCC(C)(C)O)CC[C@@H]12 [25-hydroxy-vitamin D3]
BWT = Body weight of pigs at birth ([1]; 50 mcg per kg diet): 1.45 kg
LSBA = Litter size of number of pigs born alive ([1]; 50 mcg per kg diet): 9.77
LSW = Litter size of number of pigs weaned at 28-day weaning [1, 3]: 9.46
Piglet weight gain at 28-day weaning ([1]; birth to 28-day weaning, control 5.33 kg): 5.5 kg
Weaning weights compared with control ([1]; result in words): not different from each other
LSBT = Litter size of total number of pigs at birth ([1]; standard farm diet supplemented with 25-hydroxy-vitamin D3 at 50 mcg per kg diet, gilt development, gestation, lactation): 10.46
Difference in litter size at weaning vs. control ([1]; treated minus control): +1.82
Difference in pigs born alive vs. control ([1]; treated minus control): +1.84
Difference in total pigs born vs. control ([1]; treated minus control): +1.46
LSBA = Litter size of number of pigs born alive ([2]; 50 mcg per kg diet): 9.62
LSW = Litter size of number of pigs weaned at 28-day weaning [2, 3]: 8.48
Difference in litter size at weaning vs. control ([2]; treated minus control): +0.66
Difference in pigs born alive vs. control ([2]; treated minus control): +0.44
